Results on two compounds are retold here after patent US20110110916A1, “METHODS FOR TREATING AND/OR PREVENTING CARDIOMYOPATHIES BY ERK OR JNK INHIBITION” (priority 2008, published 2011).

One assay has as its system Lmna^H222P/H222P mice. Type of assay: in vivo, mouse. The conditions noted are these: for development of LV dilatation: echocardiography (PD98059 also histopathology); for EF / FS / IVSD / LVEDD / LVESD / LVPW: Lmna^H222P/H222P mice at 16 weeks of age, i.p. 5 days a week from 8 to 16 weeks (PD98059, SP600125 3 mg/kg/day), means ± standard deviations. As to the method: PD98059 (Calbiochem) and SP600125 (Calbiochem) were dissolved in Dimethyl Sulfoxide (DMSO, Sigma) at a concentration of 0.5 mg/ml and were delivered to a dose of 3 mg/kg/day for 5 days a week. […] The placebo control consisted of DMSO alone. Placebo and inhibitors were administered by intraperitoneal injection using a 27G^5/8 syringe. Treatment was started when mice were 8 weeks of age and continued until 16 weeks of age.
Lmna H222P knock-in mice were generated and genotyped as described (14). […] Lmna^H222P/H222P mice were separated by sex and were given either vehicle alone (DMSO), the MEK inhibitor PD98059 alone, the JNK inhibitor SP600125 alone, both PD98059 and SP600125 together, the MEK inhibitor U0126 alone, or the MEK inhibitor MEK1/2 alone. All the mice were fed on a chow diet and housed in a barrier facility. The Institutional Animal Care and Use Committee at Columbia University Medical Center approved the use of animals in the study protocol.
Cardiac function was assessed by echocardiography with a Visualsonics Vevo 770 ultrasound with a 30-MHz transducer applied to the chest wall. Cardiac ventricular dimensions and ejection fraction were measured in 2D-mode and M-mode three times for the number of animals indicated. A “blinded” echocardiographer, unaware of the genotype or treatment, performed the examinations.
We administered PD98059, at a dose of 3 mg/kg/day or 6 mg/kg/day, or placebo (dimethylsulfoxide; DMSO) by intraperitoneal injection 5 days a week to male homozygous Lmna mutant mice (Lmna^H222P/H222P). […] PD98059 mediates its inhibitory properties by binding to MEK, therefore preventing phosphorylation of ERK1/2.
Treatment was initiated at 8 weeks of age and continued until the mice were 16 weeks of age. At 16 weeks of age, the mice were analyzed by echocardiography and then sacrificed for histological and biochemical studies. Untreated male Lmna^+/+ and Lmna^H222P/H222P mice were similarly analyzed for comparisons.

For the next assay, the system named is C2C12 cells. Put plainly: ERK1/2 phosphorylation in C2C12 cells treated with Emd and Lmna siRNAs (immunoblot, ELISA). The note with it: 45 μM for 24 hours. Type of assay: cell-based, mouse. As to the method:
(§1) Human HeLa cells and mouse C2C12 cells were maintained in a 5% CO2 atmosphere at 37° C. The cells were cultured in Dulbecco's modified Eagle's medium supplemented with 10% calf bovine serum and 0.1% gentamicin.
(§2) One day before transfection, HeLa and C2C12 cells were trypsinized, diluted with fresh medium without antibiotics and transferred to 24-well plates. Transient transfection of siRNAs was carried out using Oligofectamine (Invitrogen) as recommended by the manufacturer. Cells were preincubated in 7.5 μl OPTIMEM 1 medium (Life Technologies) and 2 μl Oligofectamine per well for 5 minutes at room temperature. During the time of this incubation, 40 μl OPTIMEM 1 medium were mixed with 2.5 μl siRNA. The two mixtures were combined and incubated for 20 minutes at room temperature for complex formation. The entire mixture was added to the cells in one well resulting in a final concentration of […] for the siRNAs. […]
(§3) Proteins were separated by SDS-PAGE, transferred to nitrocellulose membranes and blotted with primary antibodies against ERK1/2 (Santa-Cruz), pERK1/2 (Cell Signaling), lamin A/C (Santa-Cruz), emerin (Novocatra), β-actin (Sant-Cruz) and Gapdh (Santa-Cruz). […] Band densities were calculated using Scion Image software (Scion Corporation) and normalized to the appropriate total extract to control for protein loading. […]
On the technique in general: A western blot detects proteins with antibodies after separation by electrophoresis.

A further assay concerns HeLa cells. Kind of assay: ERK1/2 phosphorylation in HeLa cells treated with Emd and Lmna siRNAs. The note with it: 45 μM for 24 hours. It counts as cell-based, human. As for the experimental part: as §1, §2, §3
In another assay the test system is cyclooxygenase-1. The conditions noted are these: reference 137; cited from earlier work.
The test system of the next assay is cyclooxygenase-2. The conditions noted are these: reference 137; cited from earlier work.
[1] abbreviates: 16 weeks of age, treated 8 to 16 weeks.

SMILES strings stand for the structures.

Regarding `O=C1c2ccccc2-c2n[nH]c3cccc1c23` [SP600125, anthra[1,9-cd]pyrazol-6(2H)-one], in the assay on Lmna^H222P/H222P mice (setting [1]), the “development of LV dilatation” value is “prevented development of LV dilatation”. In the assay on Lmna^H222P/H222P mice, this compound gave an EF of 69.24 ± 9.59 %, an FS of 38.70 ± 7.38 %, an IVSD of 0.72 ± 0.07 mm and an LVEDD of 3.46 ± 0.27 mm. In the assay on Lmna^H222P/H222P mice, the LVESD stood at 2.30 ± 0.45 mm and the LVPW was 0.73 ± 0.08 mm.
As for `COc1cccc(-c2cc(=O)c3ccccc3o2)c1N` [PD98059, 2-(2-amino-3-methoxyphenyl)-4H-1-benzopyran-4-one], the “increase in pERK (immunoblot)” value in the assay on C2C12 cells (C2C12 cells treated with Emd and Lmna siRNAs) is reported as “reduced”. Further, the “ERK1/2 phosphorylation (ELISA)” value with C2C12 cells (siRNA-treated C2C12 cells (FIG. 20B)) is reported as “Inhibition of ERK1/2”. For the same compound, in the assay with HeLa cells, the “increase in pERK (immunoblot)” value was “reduced”. In addition, the “activity against cyclooxygenase-1” value in the assay with cyclooxygenase-1 is given as “has activity”. The “cardiac contractility (ejection fraction and LV fractional shortening)” value in the assay on Lmna^H222P/H222P mice (16 weeks of age, treated 8 to 16 weeks, compared with Lmna^+/+ mice) is “normal cardiac contractility”. Besides, in the assay with Lmna^H222P/H222P mice (setting [1]), the “development of LV dilatation” value is reported as “prevented development of LV dilatation”. Besides, in the assay with Lmna^H222P/H222P mice, the EF is given as 73.52 ± 4.68 %, the FS came to 41.55 ± 4.29 %, the IVSD is 0.69 ± 0.06 mm and the LVEDD is recorded as 3.12 ± 0.20 mm. In the assay with Lmna^H222P/H222P mice, this compound returned an LVESD of 1.82 ± 0.16 mm and an LVPW of 0.77 ± 0.10 mm. For the same compound, in the assay with cyclooxygenase-2, the “activity against cyclooxygenase-2” value was “has activity”.
